Data from PubChem BioAssay (NCI).
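Step 1: Grow cells in 96-well plates. Step 2: Expose to compound for 48 hours at 5 concentrations. Step 3: Interpolate endpoints linearly; if unreached, use highest concentration. The concentration for 50% growth inhibition is given as GI50. The concentration for full growth arrest is given as TGI.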

Experiments:
Assay in all cases: NCI tumour cell line growth inhibition, 48 h
SNB-75 CNS = tested on: SNB-75 CNS
EKVX NSCLC = tested on: EKVX NSCLC
RPMI-8226 leukemia = tested on: RPMI-8226 leukemia
NCI-H522 lung = tested on: NCI-H522 lung
SF-268 CNS = tested on: SF-268 CNS
HCC-2998 colon = tested on: HCC-2998 colon
K-562 leukemia = tested on: K-562 leukemia
LOX IMVI melanoma = tested on: LOX IMVI melanoma
UACC-257 melanoma = tested on: UACC-257 melanoma
SK-MEL-2 melanoma = tested on: SK-MEL-2 melanoma

SMILES | GI50 (SNB-75 CNS) [µM] | TGI (SNB-75 CNS) [µM] | GI50 (EKVX NSCLC) [µM] | TGI (EKVX NSCLC) [µM] | GI50 (RPMI-8226 leukemia) [µM] | TGI (RPMI-8226 leukemia) [µM] | GI50 (NCI-H522 lung) [µM] | TGI (NCI-H522 lung) [µM] | GI50 (SF-268 CNS) [µM] | TGI (SF-268 CNS) [µM] | GI50 (HCC-2998 colon) [µM] | TGI (HCC-2998 colon) [µM] | GI50 (K-562 leukemia) [µM] | TGI (K-562 leukemia) [µM] | GI50 (LOX IMVI melanoma) [µM] | TGI (LOX IMVI melanoma) [µM] | GI50 (UACC-257 melanoma) [µM] | TGI (UACC-257 melanoma) [µM] | GI50 (SK-MEL-2 melanoma) [µM] | TGI (SK-MEL-2 melanoma) [µM]
Cc1cc(S(=O)(=O)Nc2nc3ccsc3c(=O)n2Cc2ccco2)c(S)cc1Cl | > 100 | > 100 | > 100 | > 100 | 59 | > 100 | > 100 | > 100 | 99 | > 100 | > 100 | > 100 | 25.6 | > 100 | > 100 | > 100 | > 100 | > 100 |  | 
N#C/C(=C/C=C(\Cl)c1ccc(Cl)cc1)C(N)=O |  |  | 7.74 | 17.4 | 2.14 | > 100 | > 22.7 | > 62.2 | 3.46 | 13.6 | 2.66 | 7.71 | 1.47 | > 100 | 0.976 | 6.91 | 6.17 | 11.4 | > 52.5 | > 93.6
CCCCn1c2c(c3ccccc3c1=O)C(=O)c1ccccc1-2 |  | > 100 |  | > 100 |  | > 100 |  | > 100 |  | > 100 |  |  |  | > 100 |  | > 100 |  | > 100 |  | > 100
Cc1ccc(-c2ccc(Nc3c4ccccc4nc4ccccc34)cc2)cn1 |  |  |  | > 100 |  | 4.54 |  |  |  | > 100 |  | 44.7 |  | 10.7 |  | 6.54 |  | 28.5 |  | 3.63
COc1ccc2nc(NCCCNCCO)c3sc4ccc(F)cc4c(=O)c3c2c1 | 1.55 | 3.05 | 1.45 | 2.94 |  |  | 1.77 | 3.55 | 1.45 | 3.15 | 1.76 | 3.61 |  |  | 1.48 | 2.9 | 1.89 | 4.04 | 1.92 | 3.95
N#Cc1c[nH]n2ccnc12 |  | > 100 |  | > 100 |  |  |  | > 100 |  | > 100 |  | > 100 |  | > 100 |  |  |  | > 100 |  | > 100
O=C1/C(=C/c2ccccc2)SC(=Nc2ccccc2)N1Nc1ccccc1 |  |  | 7.28 | > 100 | 3.94 | 27.4 | 15.5 | 84.8 | 31.3 | > 100 | 20 | > 100 | 6.08 | > 100 |  |  | 14.2 | > 100 | 14.9 | 43.7
CC1C=C(OC(=O)c2ccccc2)C(=O)C(n2cc(F)c(=O)n(C(=O)c3ccccc3)c2=O)O1 (configuration not stated) |  | 91.9 |  | > 100 |  | > 100 |  |  |  |  |  |  |  | 55.1 |  | 55 |  | > 100 |  | > 100
Cc1ccc(S(=O)(=O)N2CCC3(C(/C=C/c4ccccc4)=Nc4ccccc43)C2c2ccccc2)cc1 (configuration not stated) |  | > 100 |  | > 100 |  | > 100 |  | > 100 |  | > 100 |  | > 100 |  | > 100 |  | > 100 |  | > 100 |  | 
CN(C)c1ccc(/C=C2\CNC/C(=C\c3ccc(N(C)C)cc3)C2=O)cc1 |  | 27.2 |  | > 100 |  | > 100 |  |  |  |  |  | > 100 |  | > 100 |  | 37 |  | > 100 |  | 
Cc1ccc(S(=O)(=O)Oc2ccc3c4c(c(=O)oc3c2)CCCCC4)cc1 | 71.4 | > 100 |  |  | 4.55 | > 100 | > 100 | > 100 | > 100 | > 100 | > 100 | > 100 | 3.51 | > 100 | > 100 | > 100 |  |  | > 100 | > 100
Cc1cc(N(CCC#N)CCC#N)ccc1/C=C(\NC(=O)/C=C/c1ccccc1)NC(=O)Nc1ccc(Cl)cc1 |  |  |  | > 100 |  | > 100 |  |  |  | > 100 |  | > 100 |  | > 100 |  | > 100 |  | > 100 |  | > 100
N#C/C(=C\c1ccc(Br)cc1)n1nnc2cccc(F)c21 | 1.41 | 2.87 | 1.62 | 3.02 | 0.416 | 4.25 |  |  | 1.73 | 3.51 | 1.56 | 3.13 | 0.386 | > 100 | 0.614 | 1.92 | 1.86 | 5.43 | 1.96 | 5.14
COc1cc2c3c(n(CCCN4CCN(C)CC4)c(=O)c2cc1OC)-c1cc2c(cc1C3=O)OCO2 | 16 | 36 | 17.7 | 41.1 | 2.39 | 14.1 | 15.4 | 45.4 | 11.9 | 41.8 |  |  | 6.49 | 22 | 3.81 | 20.4 | > 100 | > 100 | > 100 | > 100
Nc1c(C(=O)c2cccc(OCCN3CCOCC3)c2)cnn1-c1ccc(F)cc1 | > 25 | > 25 |  |  | > 25 | > 25 | > 25 | > 25 | > 25 | > 25 | > 25 | > 25 | > 25 | > 25 | > 25 | > 25 | > 25 | > 25 | > 25 | > 25
COc1ccc(NC(=O)C(=O)NNC(=O)c2sc(NNC(C)=O)nc2C)c([N+](=O)[O-])c1 |  |  |  | > 100 |  | > 100 |  | > 100 |  | > 100 |  | > 100 |  | > 100 |  | > 100 |  | > 100 |  | > 100
CC1CCCC(C(O)CC2CC(=O)N(c3ccccc3)C(=O)C2)C1=O (configuration not stated) |  | > 100 |  | > 100 |  | > 100 |  | > 100 |  | > 100 |  | > 100 |  | > 100 |  | > 100 |  | > 100 |  | 
